Measured values published in PMC4114247 (Cancer research, 2009).
Entries after “also recorded” stand apart in the source; their conditions may differ.

Key:
[1] = molecular target: PSMA on human prostate cancer LNCaP cells (Homo sapiens, UniProt Q04609); experiment: Saturation binding analysis on LNCaP cells
[2] = molecular target: LNCaP cells (PSMA positive) (Homo sapiens, UniProt Q04609); experiment: Direct binding to LNCaP cells
[3] = Stability in blood plasma; type: in vitro ADME; settings: data not shown
[4] = test system: mice bearing LNCaP xenografts; experiment: SPECT/CT imaging, LNCaP xenografts; type: in vivo, mouse; settings: 4 hr after injection
PC3 PIP (PSMA +) tumors = settings: mouse, in vivo
[5] = Stability in liver microsomes; type: in vitro ADME; settings: data not shown
[6] = test system: NCr nude mice bearing LNCaP xenografts; experiment: Mouse tissue distribution, LNCaP xenografts; type: in vivo; settings: for Ratio Tumor:Blood / Ratio Tumor:Skeletal Muscle: ratio based on the %ID/g
[7] = test system: PC3 cells (PSMA negative); experiment: Direct binding to PC3 cells; settings: 3 nM radioligand, 1 hour; PC3 cells lack PSMA
[8] = test system: NCr-nu/nu mice bearing PC3 xenografts; experiment: Mouse tissue distribution, PC3 xenografts; type: in vivo; settings: PSMA deficient PC3 xenografts
LNCaP cells = experiment: Internalization into LNCaP cells; type: cell-based, human; settings: 100 nM, 0–2 hours
[9] = co-injected with 50 mg/kg PMPA, 2 hours

LNCaP cells (PSMA positive), sequence (Q04609 whole entry): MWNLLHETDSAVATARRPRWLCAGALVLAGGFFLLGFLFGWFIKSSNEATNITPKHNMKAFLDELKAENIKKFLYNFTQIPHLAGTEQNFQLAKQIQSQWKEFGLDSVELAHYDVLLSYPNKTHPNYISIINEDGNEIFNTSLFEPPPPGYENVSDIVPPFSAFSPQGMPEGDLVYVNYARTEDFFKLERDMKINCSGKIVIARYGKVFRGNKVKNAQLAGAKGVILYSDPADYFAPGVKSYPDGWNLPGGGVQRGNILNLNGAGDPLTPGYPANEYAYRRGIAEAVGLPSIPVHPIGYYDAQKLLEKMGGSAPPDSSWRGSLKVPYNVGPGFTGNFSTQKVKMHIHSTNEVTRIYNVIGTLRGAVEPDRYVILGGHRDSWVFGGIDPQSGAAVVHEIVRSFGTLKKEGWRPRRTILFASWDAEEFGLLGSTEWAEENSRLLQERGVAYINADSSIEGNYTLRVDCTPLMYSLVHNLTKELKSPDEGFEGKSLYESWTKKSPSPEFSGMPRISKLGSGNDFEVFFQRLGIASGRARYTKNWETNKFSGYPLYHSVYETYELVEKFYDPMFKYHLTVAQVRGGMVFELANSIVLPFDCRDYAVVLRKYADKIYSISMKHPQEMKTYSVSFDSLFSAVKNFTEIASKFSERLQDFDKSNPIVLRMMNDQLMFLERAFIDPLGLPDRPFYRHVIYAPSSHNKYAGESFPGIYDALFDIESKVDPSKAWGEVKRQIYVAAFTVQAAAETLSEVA
PSMA on human prostate cancer LNCaP cells, sequence (Q04609 whole entry): as above

SMILES: O=C(O)CC[C@H](NC(=O)N[C@@H](CCCCNC(=O)Nc1ccc(I)cc1)C(=O)O)C(=O)O [MIP-1095, (S)-2-(3-((S)-1-carboxy-5-(3-(4-iodophenyl)ureido)pentyl)ureido)pentanedioic acid]
- Kd [1]: 810 ± 390 pM
- Greater affinity of MIP-1095 over MIP-1072 ([1]; saturation binding and NAALADase inhibition studies): approximately 5 fold

SMILES: O=C(O)CC[C@H](NC(=O)N[C@@H](CCCCNCc1ccc(I)cc1)C(=O)O)C(=O)O [[^123I]MIP-1072, (S)-2-(3-((S)-1-carboxy-5-(4–iodobenzylamino)pentyl)ureido)pentanedioic acid]
- Binding to LNCaP cells in the presence of non-radiolabeled compound or PMPA ([2]; 3 nM radioligand with 10 µM non-radiolabeled compound or 10 µM PMPA): abolished; also recorded: inhibited
- Binding to LNCaP cells ([2]; 3 nM radioligand, 1 hour, room temperature): bound
- Stability in blood plasma [3]: stable
- SPECT/CT uptake in kidney and LNCaP tumor [4]: high uptake
- SPECT/CT detection of PC3 PIP (PSMA +) tumors (PC3 PIP (PSMA +) tumors): detected
- Stability in liver microsomes [5]: stable
- Tissue distribution: Adipose ([6]; 0.25 hr after injection): 1.45 ± 0.27 %ID/g
- Tissue distribution: Blood ([6]; 0.25 hr after injection): 2.59 ± 0.24 %ID/g
- Tissue distribution: Bone ([6]; 0.25 hr after injection): 0.69 ± 0.15 %ID/g
- Tissue distribution: Brain ([6]; 0.25 hr after injection): 0.08 ± 0.02 %ID/g
- Tissue distribution: Heart ([6]; 0.25 hr after injection): 1.25 ± 0.22 %ID/g
- Tissue distribution: Kidneys ([6]; 0.25 hr after injection): 90.1 ± 20.2 %ID/g
- Tissue distribution: Lg Intestine ([6]; 0.25 hr after injection): 0.41 ± 0.08 %ID/g
- Tissue distribution: Liver ([6]; 0.25 hr after injection): 2.26 ± 0.56 %ID/g
- Tissue distribution: Lungs ([6]; 0.25 hr after injection): 2.34 ± 0.61 %ID/g
- Tissue distribution: Sk.Muscle ([6]; 0.25 hr after injection): 0.8 ± 0.18 %ID/g
- Tissue distribution: Sm Intestine ([6]; 0.25 hr after injection): 0.83 ± 0.1 %ID/g
- Tissue distribution: Spleen ([6]; 0.25 hr after injection): 4.28 ± 1.67 %ID/g
- Tissue distribution: Stomach ([6]; 0.25 hr after injection): 0.69 ± 0.17 %ID/g
- Tissue distribution: Testes ([6]; 0.25 hr after injection): 0.91 ± 0.24 %ID/g
- Tissue distribution: Tumor (LNCaP xenograft) ([6]; 0.25 hr after injection): 12.9 ± 3.3 %ID/g
- Ratio Tumor:Blood ([6]; 0.25 hr): 4.97
- Ratio Tumor:Skeletal Muscle ([6]; 0.25 hr): 16.2
- Tissue distribution: Adipose ([6]; 1 hr after injection): 0.74 ± 0.28 %ID/g
- Tissue distribution: Blood ([6]; 1 hr after injection): 0.47 ± 0.15 %ID/g
- Tissue distribution: Bone ([6]; 1 hr after injection): 0.25 ± 0.07 %ID/g
- Tissue distribution: Brain ([6]; 1 hr after injection): 0.04 ± 0.01 %ID/g
- Tissue distribution: Heart ([6]; 1 hr after injection): 0.31 ± 0.08 %ID/g
- Tissue distribution: Kidneys ([6]; 1 hr after injection): 151 ± 26 %ID/g
- Tissue distribution: Lg Intestine ([6]; 1 hr after injection): 0.15 ± 0.04 %ID/g
- Tissue distribution: Liver ([6]; 1 hr after injection): 2.22 ± 0.43 %ID/g
- Tissue distribution: Lungs ([6]; 1 hr after injection): 0.86 ± 0.24 %ID/g
- Tissue distribution: Sk.Muscle ([6]; 1 hr after injection): 0.35 ± 0.17 %ID/g
- Tissue distribution: Sm Intestine ([6]; 1 hr after injection): 0.41 ± 0.12 %ID/g
- Tissue distribution: Spleen ([6]; 1 hr after injection): 1.91 ± 0.85 %ID/g
- Tissue distribution: Stomach ([6]; 1 hr after injection): 0.26 ± 0.03 %ID/g
- Tissue distribution: Testes ([6]; 1 hr after injection): 0.58 ± 0.19 %ID/g
- Tissue distribution: Tumor (LNCaP xenograft) ([6]; 1 hr after injection): 17.4 ± 6.3 %ID/g
- Ratio Tumor:Blood ([6]; 1 hr): 37.1
- Ratio Tumor:Skeletal Muscle ([6]; 1 hr): 50.0
- Tissue distribution: Adipose ([6]; 2 hr after injection): 0.46 ± 0.27 %ID/g
- Tissue distribution: Blood ([6]; 2 hr after injection): 0.21 ± 0.04 %ID/g
- Tissue distribution: Bone ([6]; 2 hr after injection): 0.17 ± 0.08 %ID/g
- Tissue distribution: Brain ([6]; 2 hr after injection): 0.04 ± 0.01 %ID/g
- Tissue distribution: Heart ([6]; 2 hr after injection): 0.19 ± 0.07 %ID/g
- Tissue distribution: Kidneys ([6]; 2 hr after injection): 159 ± 46 %ID/g
- Tissue distribution: Lg Intestine ([6]; 2 hr after injection): 0.28 ± 0.12 %ID/g
- Tissue distribution: Liver ([6]; 2 hr after injection): 2.84 ± 0.63 %ID/g
- Tissue distribution: Lungs ([6]; 2 hr after injection): 0.4 ± 0.19 %ID/g
- Tissue distribution: Sk.Muscle ([6]; 2 hr after injection): 0.2 ± 0.1 %ID/g
- Tissue distribution: Sm Intestine ([6]; 2 hr after injection): 0.35 ± 0.1 %ID/g
- Tissue distribution: Spleen ([6]; 2 hr after injection): 0.75 ± 0.36 %ID/g
- Tissue distribution: Stomach ([6]; 2 hr after injection): 0.21 ± 0.06 %ID/g
- Tissue distribution: Testes ([6]; 2 hr after injection): 0.43 ± 0.16 %ID/g
- Tissue distribution: Tumor (LNCaP xenograft) ([6]; 2 hr after injection): 14.0 ± 6.9 %ID/g
- Ratio Tumor:Blood ([6]; 2 hr): 65.4
- Ratio Tumor:Skeletal Muscle ([6]; 2 hr): 70.2
- Tissue distribution: Adipose ([6]; 4 hr after injection): 0.12 ± 0.16 %ID/g
- Tissue distribution: Bone ([6]; 4 hr after injection): 0.1 ± 0.18 %ID/g
- Tissue distribution: Heart ([6]; 4 hr after injection): 0.01 ± 0.02 %ID/g
- Tissue distribution: Kidneys ([6]; 4 hr after injection): 35.8 ± 18.7 %ID/g
- Tissue distribution: Lg Intestine ([6]; 4 hr after injection): 0.48 ± 0.13 %ID/g
- Tissue distribution: Liver ([6]; 4 hr after injection): 2.17 ± 0.67 %ID/g
- Tissue distribution: Lungs ([6]; 4 hr after injection): 0.08 ± 0.04 %ID/g
- Tissue distribution: Sk.Muscle ([6]; 4 hr after injection): 0.08 ± 0.1 %ID/g
- Tissue distribution: Sm Intestine ([6]; 4 hr after injection): 0.24 ± 0.07 %ID/g
- Tissue distribution: Spleen ([6]; 4 hr after injection): 0.16 ± 0.12 %ID/g
- Tissue distribution: Stomach ([6]; 4 hr after injection): 0.11 ± 0.05 %ID/g
- Tissue distribution: Testes ([6]; 4 hr after injection): 0.26 ± 0.17 %ID/g
- Tissue distribution: Tumor (LNCaP xenograft) ([6]; 4 hr after injection): 13.7 ± 3.1 %ID/g
- Ratio Tumor:Blood ([6]; 4 hr): 220
- Ratio Tumor:Skeletal Muscle ([6]; 4 hr): 182
- Tissue distribution: Adipose ([6]; 8 hr after injection): 0.04 ± 0.11 %ID/g
- Tissue distribution: Blood ([6]; 8 hr after injection): 0.06 ± 0.03 %ID/g
- Tissue distribution: Bone ([6]; 8 hr after injection): 0.04 ± 0.04 %ID/g
- Tissue distribution: Brain ([6]; 8 hr after injection): 0.02 ± 0.01 %ID/g
- Tissue distribution: Heart ([6]; 8 hr after injection): 0.05 ± 0.04 %ID/g
- Tissue distribution: Kidneys ([6]; 8 hr after injection): 21.5 ± 25.5 %ID/g
- Tissue distribution: Lg Intestine ([6]; 8 hr after injection): 0.72 ± 0.22 %ID/g
- Tissue distribution: Liver ([6]; 8 hr after injection): 1.78 ± 0.4 %ID/g
- Tissue distribution: Lungs ([6]; 8 hr after injection): 0.06 ± 0.03 %ID/g
- Tissue distribution: Sk.Muscle ([6]; 8 hr after injection): 0.02 ± 0.04 %ID/g
- Tissue distribution: Sm Intestine ([6]; 8 hr after injection): 0.27 ± 0.06 %ID/g
- Tissue distribution: Spleen ([6]; 8 hr after injection): 0.18 ± 0.11 %ID/g
- Tissue distribution: Stomach ([6]; 8 hr after injection): 0.21 ± 0.08 %ID/g
- Tissue distribution: Testes ([6]; 8 hr after injection): 0.18 ± 0.14 %ID/g
- Tissue distribution: Tumor (LNCaP xenograft) ([6]; 8 hr after injection): 9.74 ± 3.48 %ID/g
- Ratio Tumor:Blood ([6]; 8 hr): 176
- Ratio Tumor:Skeletal Muscle ([6]; 8 hr): 446
- Tissue distribution: Adipose ([6]; 24 hr after injection): 0.01 ± 0.11 %ID/g
- Tissue distribution: Blood ([6]; 24 hr after injection): 0.01 ± 0 %ID/g
- Tissue distribution: Bone ([6]; 24 hr after injection): 0.03 ± 0.05 %ID/g
- Tissue distribution: Brain ([6]; 24 hr after injection): 0.02 ± 0.01 %ID/g
- Tissue distribution: Heart ([6]; 24 hr after injection): 0.01 ± 0.05 %ID/g
- Tissue distribution: Kidneys ([6]; 24 hr after injection): 1.1 ± 0.6 %ID/g
- Tissue distribution: Lg Intestine ([6]; 24 hr after injection): 0.37 ± 0.18 %ID/g
- Tissue distribution: Liver ([6]; 24 hr after injection): 0.29 ± 0.05 %ID/g
- Tissue distribution: Lungs ([6]; 24 hr after injection): 0.05 ± 0.06 %ID/g
- Tissue distribution: Sk.Muscle ([6]; 24 hr after injection): 0.08 ± 0.04 %ID/g
- Tissue distribution: Sm Intestine ([6]; 24 hr after injection): 0.07 ± 0.02 %ID/g
- Tissue distribution: Spleen ([6]; 24 hr after injection): 0.14 ± 0.1 %ID/g
- Tissue distribution: Stomach ([6]; 24 hr after injection): 0.11 ± 0.05 %ID/g
- Tissue distribution: Testes ([6]; 24 hr after injection): 0.05 ± 0.04 %ID/g
- Tissue distribution: Tumor (LNCaP xenograft) ([6]; 24 hr after injection): 5.03 ± 1.35 %ID/g
- Ratio Tumor:Blood ([6]; 24 hr): 411
- Ratio Tumor:Skeletal Muscle ([6]; 24 hr): 64.5
- tumor:blood ratio ([6]; after only a few hours): > 100
- tumor:skeletal muscle ratio ([6]; after only a few hours): > 100
- Thyroid content (deiodination) ([6]; all time points): < 1 % of the total injected dose
- Binding to LNCaP tumor xenografts with co-injected PMPA [6, 9]: blocked
- Binding to kidneys with co-injected PMPA [6, 9]: blocked
- Blood-brain barrier crossing ([6]; from little uptake in the brain): do not cross the blood-brain barrier
- Route of clearance ([6]; mouse, in vivo): primarily through urinary excretion
- Binding to PC3 cells [7]: no binding; also recorded: not to the PSMA deficient PC3 cells
- Localization to PC3 tumors [8]: not to the PSMA deficient PC3 tumors
- Internalization into LNCaP cells (LNCaP cells; 4 °C): but not at 4 °C
- Internalization into LNCaP cells (LNCaP cells; 37 °C): internalized; also recorded: time dependent increase in radioactivity associated with the cellular pellet
